Measured values taken from PubChem BioAssay (NCI).
Several values for one entry are separate records, joined by “and”; a condition that tells them apart may be missing. Equal entries are not always repeated.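 1) Cells in 96-well plates. 2) Compound, 48 h, 5 concentrations. 3) Linear interpolation between surrounding doses. 4) Unreached endpoint = highest concentration. Abbreviation: GI50, concentration required for 50% inhibition of growth. TGI is the concentration that stops growth completely.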

How the values were obtained:
Experiment in all cases: NCI anticancer screen, dose series, 48 h
CCRF-CEM leukemia = tested on: CCRF-CEM leukemia
HOP-92 NSCLC = tested on: HOP-92 NSCLC
K-562 leukemia = tested on: K-562 leukemia
KM12 colon = tested on: KM12 colon
PC-3 prostate = tested on: PC-3 prostate
RXF 393 renal = tested on: RXF 393 renal
SK-MEL-2 melanoma = tested on: SK-MEL-2 melanoma
SK-MEL-28 melanoma = tested on: SK-MEL-28 melanoma
UACC-257 melanoma = tested on: UACC-257 melanoma
UO-31 renal = tested on: UO-31 renal

| Compound | GI50 (CCRF-CEM leukemia) [nM] | TGI (CCRF-CEM leukemia) [µM] | GI50 (HOP-92 NSCLC) [nM] | TGI (HOP-92 NSCLC) | GI50 (K-562 leukemia) [nM] | TGI (K-562 leukemia) [µM] | GI50 (KM12 colon) [nM] | TGI (KM12 colon) [µM] | GI50 (PC-3 prostate) [nM] | TGI (PC-3 prostate) [µM] | GI50 (RXF 393 renal) [nM] | TGI (RXF 393 renal) | GI50 (SK-MEL-2 melanoma) [nM] | TGI (SK-MEL-2 melanoma) [µM] | GI50 (SK-MEL-28 melanoma) [nM] | TGI (SK-MEL-28 melanoma) [µM] | GI50 (UACC-257 melanoma) [nM] | TGI (UACC-257 melanoma) [µM] | GI50 (UO-31 renal) [nM] | TGI (UO-31 renal) [µM] |
| --- | --- | --- | --- | --- | --- | --- | --- | --- | --- | --- | --- | --- | --- | --- | --- | --- | --- | --- | --- | --- |
| Cn1c(=O)c(Oc2ccc(F)cc2F)cc2cnc(NCCS(C)(=O)=O)nc21 | > 25000 | > 25 | > 25000 | > 25 µM | > 25000 | > 25 | > 25000 | > 25 | > 25000 | > 25 | > 25000 | > 25 µM | > 25000 | > 25 | > 25000 | > 25 | > 25000 | > 25 | > 25000 | > 25 |
| O=C(Nc1ccc(I)cc1F)c1cc(Cl)ccc1O | 1730 | 10 | 167 | 0.505 µM | 429 | > 100 | 2310 | 6.01 | 1910 | 6.5 | 507 | 3.07 µM | 358 | 1.99 | 353 | 1.71 | 467 | 3.99 | 235 | 1.65 |
| CN1C(Cl)=NS(=O)(=O)c2ccccc21 |  | > 100 |  | > 100 µM |  | > 100 |  | > 100 |  | > 100 |  | > 100 µM |  | > 100 |  | > 100 |  | > 100 |  | > 100 |
| COC(=O)[C@@H](C)C[C@H](Cc1ccccc1)NC(=O)c1csc([C@@H](C[C@H](C(C)C)N(C)C(=O)[C@H](C)NC(=O)[C@H]2CCCCN2C)OC(C)=O)n1 | 1050 | > 25 | 982 | > 25 µM | 278 | > 25 | 1110 | > 25 | 821 | > 25 | 1000 | 24.2 µM | 929 | > 25 | > 25000 | > 25 | > 25000 | > 25 | 19200 | > 25 |
| O=C1OC(c2ccccc2)=N/C1=C\c1cccc(F)c1 |  | 72.7 |  | > 100 µM |  | > 100 |  | > 100 |  | > 100 |  | > 100 µM |  | > 100 |  | > 100 |  | 88.2 |  | > 100 |
| CC(=O)Oc1ccc(C(c2ccc(OC(C)=O)cc2)c2ccccn2)cc1 | 43000 | > 100 | 861 | 34.3 µM and > 94.1 µM | 39300 | > 100 | 39200 | > 100 | 16300 | > 100 | 3670 | 96.9 µM and > 95.7 µM | 43100 | > 100 | 61500 | > 100 |  | > 100 | 21400 | > 100 |
| O=C1NCCS(=O)(=O)/C1=C\C=C\c1cccc(C(F)(F)F)c1 | 2130 | 10.7 | 5090 | 16.4 µM | 2480 | 25.7 | 2360 | 6.67 | 2790 | 11.4 | 2520 | 5.37 µM | 2620 | 9.77 | 2920 | 11.3 | 1830 | 9.22 | 1760 | 3.79 |
| Cc1cccc2c(N)c3ccccc3nc12 | 2540 | 10.2 | 2180 | 6.05 µM | 1300 | 13.5 | 1780 | 12.2 | 2320 | 8.17 | 1360 | 3.72 µM | 1680 | 3.84 | 2340 | 6.53 | 1870 | 3.63 | 595 | 6.09 |
